Measured values taken from patent publication US20020004518A1, “Method of treating disorders related to protease-activated receptors-induced cell activation” (priority 2000, published 2002).
Blank lines part the entries; values can stand above or below the molecule they belong to.

How the values were obtained:
PARs = assay: Inhibition of platelet aggregation induced by PARs (thrombin-triggered, turbidimetric); format: cell-based
Procedure: A suitable in vitro inhibition assay can be used to preliminarily evaluate a fused pyrazolyl compound's ability to inhibit cell activation induced by PARs, which are pre-activated by thrombin. For example, a platelet suspension in Tyrode's solution can be prepared and incubated with a compound to be tested, thrombin added to trigger platelet aggregation, and the aggregation measured turbidimetrically with a light-transmission aggremometer. In vivo screening can be performed by following procedures well known in the art.
In vitro inhibitory activity of the fused pyrazolyl compounds was preliminarily evaluated by the following method: A platelet suspension in a Tyrode's solution was prepared according to a procedure described by Wu et al., Br. J Pharm., 1995, 116: 1973-1978. The Tyrode's solution had the following composition (mM): NaCl (136.8), KCl (2.8), NaHCO3 (11.9), MgCl2 (1.1), NaH2PO4 (0.33), CaCl2 (1.0), and glucose (11.2). The platelet number in the platelet suspension was adjusted to 4.5×10^8 platelets/mL with the aid of a Coulter Counter (Model ZM). […] Platelet aggregation was measured turbidimetrically with a light-transmission aggremometer. The extent of platelet aggregation was determined at 5 minutes after the addition of thrombin. The percentage of aggregation was calculated by the method described in Teng et al., Biochem. Biophys. […]

[1] = system: platelet activating factors other than PARs; assay: Effect on platelet activating factors other than PARs; format: cell-based; conditions: selectivity versus other platelet activators

SMILES: CCN(CC)Cc1ccc(-c2nn(Cc3ccccc3)c3ccccc23)o1 [Example 17, 1-benzyl-3-(5′-diethylaminomethyl-2′-furyl)indazole]
inhibitory activity on platelet aggregation (PARs; platelet suspension in Tyrode's solution, 3 min preincubation at 37° C., thrombin added, aggregation read at 5 minutes): much higher activity

SMILES: CCOC(=O)c1cccc(-c2nn(Cc3ccccc3)c3ccccc23)c1 [Example 19, 1-benzyl-3-(3′-ethoxycarbonylphenyl)indazole]
activity relative to several other tested compounds, e.g. 1-benzyl-3-(4′-ethoxycarbonyl)phenyl-indazole (PARs; thrombin-induced platelet aggregation, fold versus other tested compounds): at least 10 times | effect on platelet activating factors other than PARs [1]: little or no effect | melting point: 85 to 86 °C

The next lines start with the values.

melting point: 205 to 207 °C
SMILES: O=C(O)c1ccc(-c2nn(Cc3ccccc3)c3ccccc23)cc1 [Example 20, 1-benzyl-3-(4′-hydroxycarbonylphenyl)indazole]

melting point: 190 to 192 °C
SMILES: O=C(O)c1cccc(-c2nn(Cc3ccccc3)c3ccccc23)c1 [Example 21, 1-benzyl-3-(3′-hydroxycarbonylphenyl)indazole]

melting point: 110 to 112 °C
SMILES: OCc1ccc(-c2nn(Cc3ccccc3)c3ccccc23)cc1 [Example 22, 1-benzyl-3-(4′-hydroxymethylphenyl)indazole]
